# Measurements from patent US10532082B2, “SOCS1-derived peptide for use in chronic complications of diabetes” (Fundació Hospital Universitari Vall d'Hebron-Institut de …, priority 2014, dated 2020).
# Where no end group is shown, it is not given here. [ ]: non-standard residue; d: D form. lysine‑palmitate = lysine-palmitate bound at the N-terminal end; pY = N[C@@H](Cc1ccc(OP(=O)(O)O)cc1)C(=O)O
# How the values were obtained:
# diabetic mice (db/db) [1] = experiment: Retinal apoptosis by TUNEL, topical eye drops; assay type: in vivo
# Description: 8-week old diabetic mice (db/db) received the miS1 peptide in the form of eye drops (5 μL drops in each eye; 10 mg/mL; twice a day for 15 days; n=7 mice). Diabetic mice treated with the non-functional peptide Mut (n=7), treated with vehicle and non-diabetic mice (db/+) were used as controls. The eye drops were directly administered on the upper surface of the cornea of each eye using a micropipette. The weight and glycemia (colorimetric assay) were controlled throughout the study period. On day 15, the drop with the miS1 peptide or vehicle was administered about two hours before autopsy. The animals were euthanized by cervical dislocation and the enucleated eyes were immediately frozen and dorsoventral sections of […] were cut for analyzing retinal morphology and other immunohistochemical analyses.
# Glial activation was evaluated by means of GFAP (Glial fibrillar acidic protein) immunofluorescence following the methodology described in other studies (Bogdanov et al. PLoS One. 2014; 9:e97302). The fixed sections were blocked (1% BSA and 10% goat serum in PBS, 2 hours at RT) and incubated with anti-GFAP antibodies (dilution 1:500, 16 hours at 4° C.) followed by a secondary antibody (Alexa 488-conjugated goat anti-rabbit, dilution 1:200). […] The images of diabetic and control samples were taken with identical parameters and the topographic distribution of the GFAP labelling was analyzed in a scale of 0 to 5 (Anderson et al. Clin Ophthalmol 2008; 2(4):801-16). […] Apoptosis was determined by means of TUNEL (Terminal Transferase dUTP Nick-EndLabeling; fluorescence kit) immunohistochemistry using the previously described method (Bogdanov et al. PLoS One. 2014; 9:e97302) and subsequent quantification under a fluorescence microscope. […] The apoptotic cells were identified using green fluorescence [[…] goat-anti-rabbit (Invitrogen) (dilution 1:200 prepared in PBS)]. An excitation wavelength in the interval of 450-565 nm (e.g., 488 nm) was used for evaluation using fluorescence microscopy and the interval of 515-565 nm (green) was used for detection. […]
# RAW264.7 macrophages [2] = experiment: Macrophage migration chemotaxis assay; assay type: cell-based, murine; conditions: chemotaxis assays
# Description: (§1) RAW264.7 macrophages and vascular smooth muscle cells (VSMC) cultured in a medium with 10% fetal bovine serum were used. The cells were synchronized (24 hours without serum), pre-incubated for 90 minutes with different peptide concentrations (miS1 or the control thereof, 50-150 μg/mL) and stimulated with cytokines (IFNγ […]). STAT activation was analyzed by means of Western blot for phosphorylated STAT1/STAT3 isoforms. JAK/STAT pathway-dependent chemokine (CCL2) expression was determined by means of ELISA. Cell viability was analyzed by MTT colorimetric assay and macrophage migration was analyzed by chemotaxis assay.
# STAT1 = experiment: Renal phosphorylated STAT1 immunodetection in diabetic mice; assay type: in vivo; conditions: STZ apoE mice, i.p. 8 weeks; kidney sections, vs vehicle
# Description: Apolipoprotein E (apoE)-deficient male mice of 8 weeks of age were made diabetic through streptozotocin injection (125 mg/kg weight in 10 mM citrate, pH 4.5, two consecutive days). After 2 weeks, animals with glycemia greater than 350 mg/dL were randomly distributed in two groups (n=9 animals per group): treated animals (miS1 peptide: 65 μg/day, 200 μL, intraperitoneally, every 2 days for 8 weeks) and controls (vehicle). The weight and glycemia (colorimetric assay) were controlled throughout the study period.
# RAW264.7 macrophages [3] = experiment: Cytokine-induced CCL2 production in macrophages (ELISA); assay type: cell-based, murine; conditions: pre-incubation with peptide, IFNγ and IL-6
# Description: as §1
# STAT3 = STAT3 activation in cytokine-stimulated VSMC; assay type: cell-based, mouse; conditions: IFNγ and IL-6 stimulation, immunofluorescence images
# [4] = system: vascular smooth muscle cells (VSMC); experiment: Cytokine-induced CCL2 production in VSMC (ELISA); assay type: cell-based, mouse; conditions: pre-incubation with peptide, IFNγ and IL-6
# Description: as §1
# diabetic mice (db/db) [5] = experiment: Retinal glutamate metabolism (GLAST immunofluorescence, glutamate by UPLC); assay type: in vivo; conditions: eye drops 15 days
# Description: 8-week old diabetic mice (db/db) received the miS1 peptide in the form of eye drops (5 μL drops in each eye; 10 mg/mL; twice a day for 15 days; n=7 mice). Diabetic mice treated with the non-functional peptide Mut (n=7), treated with vehicle and non-diabetic mice (db/+) were used as controls. The eye drops were directly administered on the upper surface of the cornea of each eye using a micropipette. The weight and glycemia (colorimetric assay) were controlled throughout the study period. On day 15, the drop with the miS1 peptide or vehicle was administered about two hours before autopsy. […]
# The glutamate metabolism was evaluated in order to investigate the mechanisms through which the miS1 peptide produces neuroprotection. The glutamate concentration was determined by means of ultra-high performance liquid chromatography (UPLC) (Acquity-UPLC, Waters) MassTrak amino acid system). The GLAST (Glutamate/Aspartate transporter) was evaluated by means of immunofluorescence.
# The paraffin sections were deparaffinized in xylene and rehydrated in a gradual series of ethanol. […] The GLAST immunofluorescence was quantified by means of laser confocal microscopy (Olympus FluoView™ FV1000 confocal microscope, Hamburg, Germany) using the ImageJ software.
# [6] = eye drops 50 μg in 5 μL/eye twice a day, 15 days
substance,measurement,setting,value
"miS1: SEQ ID NO 1 DTHFRTFRSHSDYRRI, kinase inhibitory region of murine SOCS1, bound to lysine-palmitate at the N-terminal end, tyrosine phosphorylated ({lysine‑palmitate}-DTHFRTFRSHSD[pY]RRI)",apoptosis rate (TUNEL) vs diabetic mice treated with vehicle,diabetic mice (db/db) [1]; [6],significantly lower apoptosis rate
same,percentage of apoptotic cells vs non-diabetic mice,diabetic mice (db/db) [1]; [6],No differences
same,reduction of apoptosis,"diabetic mice (db/db) [1]; eye drops 15 days, compared with groups that received Mut peptide or vehicle",about 80%
same,macrophage migration,RAW264.7 macrophages [2],anti-migratory effect
same,renal STAT1 activation,STAT1,reduction
same,reduction of cytokine-induced CCL2 production,RAW264.7 macrophages [3],30-40%
same,STAT3 activation,STAT3,prevented
same,reduction of cytokine-induced CCL2 production,[4],30-40%
same,intraretinal glutamate levels,diabetic mice (db/db) [5]; UPLC,reduced but without reaching statistical significance
same,GLAST content in retina,diabetic mice (db/db) [5]; immunofluorescence,downregulation was prevented
